Assay results reported in US20100280010A1, “CHEMICAL COMPOUNDS” (priority 2006, published 2010).

What follows are compounds tested on HIV-1 (Ba-L or IIIB) infection of HOS cell line (expressing hCXCR4/hCCR5/hCD4/pHIV-LTR-luciferase) (assay: HOS HIV-1 Infectivity Assay). Settings: Human immunodeficiency virus 1, HOS, virus strain not given, read-out: Activity Level.
Type: cell-based
Method: Compounds were profiled against two HIV-1 viruses, the M-tropic (CCR5 utilizing) Ba-L strain and the T-tropic (CXCR4 utilizing) IIIB strain. Ba-L was propagated in either peripheral blood lymphocytes or SupT1/CCR5+/CXCR4+ cells. IIIB was propagated in peripheral blood lymphocytes. Compounds were tested for their ability to block infection of the HOS cell line (expressing hCXCR4/hCCR5/hCD4/pHIV-LTR-luciferase) by either HIV-1 Ba-L or HIV-1 IIIB. Compound cytotoxicity was also examined in the absence of virus addition.
HOS cells (expressing hCXCR4/hCCR5/hCD4/pHIV-LTR-luciferase) were harvested and diluted in Dulbeccos modified Eagles media supplemented with 2% FCS to a concentration of 120,000 cells/ml. The cells were plated into 96-well plates (50 μl per well) and the plates were placed in a tissue culture incubator ([…]; 5% CO2195% air) for a period of 24 h.
Subsequently, 50 μl of the desired drug solution (2 times the final concentration) was added to each well and the plates were returned to the tissue culture incubator (370° C.; 5% CO2/95% air) for 1 h. Following this incubation, 60 μl of diluted virus (4 times the final concentration) was added to 60 μl of 2× the final desired concentration of the compound and 100 μl of this compound/virus mix was added to each well (approximately 2 million RLU per well of virus). The plates were returned to the tissue culture incubator (370° C.; 5% CO2/95% air) and were incubated for a further 96 h.
Following this incubation the endpoint for the virally infected cultures was quantified following addition of Steady-Glo Luciferase assay system reagent (Promega, Madison, Wis.). Cell viability or non-infected cultures was measured using a CellTiter-Glo luminescent cell viability assay system (Promega, Madison, Wis.). All luminescent readouts are performed on a Topcount luminescence detector (Packard, Meridien, Conn.).
Compound `CC(C)N(Cc1nc2cccc(N3CCC(N(C)C)CC3)n2c1C#N)[C@H]1CCCc2cccnc21` [Example 70, 5-[4-(dimethylamino)-1-piperidinyl]-2-({(1-methylethyl)[(8S)-5,6,7,8-tetrahydro-8-quinolinyl]amino}methyl)imidazo[1,2-a]pyridine-3-carbonitrile] has an IC50 of less than 100 nM. Work on `CC(C)N(Cc1nc2cccc(N3CCC(N(C)C)CC3)n2c1C(N)=O)[C@H]1CCCc2cccnc21` [Example 71, 5-[4-(dimethylamino)-1-piperidinyl]-2-({(1-methylethyl)[(8S)-5,6,7,8-tetrahydro-8-quinolinyl]amino}methyl)imidazo[1,2-a]pyridine-3-carboxamide] yielded an IC50 of less than 100 nM. `CN1CCN(c2cccc3nc(CN(C)[C@H]4CCCc5cccnc54)c(Cl)n23)CC1` [Example 72, (8S)—N-{[3-Chloro-5-(4-methyl-1-piperazinyl)imidazo[1,2-a]pyridin-2-yl]methyl}-N-methyl-5,6,7,8-tetrahydro-8-quinolinamine] showed an IC50 of less than 100 nM. Compound `CCN1CCN(c2cccc3nc(CN(C)[C@H]4CCCc5cccnc54)c(Cl)n23)CC1` [Example 73, (8S)—N-{[3-Chloro-5-(4-ethyl-1-piperazinyl)imidazo[1,2-a]pyridin-2-yl]methyl}-N-methyl-5,6,7,8-tetrahydro-8-quinolinamine] has an IC50 of less than 100 nM. In the case of `CN(C)[C@@H]1CCN(c2cccc3nc(CN(C)[C@H]4CCCc5cccnc54)c(Cl)n23)C1` [Example 74, (8S)—N-({3-Chloro-5-[(3R)-3-(dimethylamino)-1-pyrrolidinyl]imidazo[1,2-a]pyridin-2-yl}methyl)-N-methyl-5,6,7,8-tetrahydro-8-quinolinamine], the IC50 is reported as less than 100 nM. `CN(C)C1CCN(c2cccc3nc(CN(C)[C@H]4CCCc5cccnc54)c(Cl)n23)CC1` [Example 75, (8S)—N-({3-Chloro-5-[4-(dimethylamino)-1-piperidinyl]imidazo[1,2-a]pyridin-2-yl}methyl)-N-methyl-5,6,7,8-tetrahydro-8-quinolinamine] gave an IC50 of less than 100 nM. `CN1CCCN(c2cccc3nc(CN(C)[C@H]4CCCc5cccnc54)c(Cl)n23)CC1` [Example 76, (8S)—N-{[3-Chloro-5-(4-methylhexahydro-1H-1,4-diazepin-1-yl)imidazo[1,2-a]pyridin-2-yl]methyl}-N-methyl-5,6,7,8-tetrahydro-8-quinolinamine] gave an IC50 of less than 100 nM. Compound `CN(C)CCN(C)c1cccc2nc(CN(C)[C@H]3CCCc4cccnc43)c(Cl)n12` [Example 77, N-[3-Chloro-2-({methyl[(8S)-5,6,7,8-tetrahydro-8-quinolinyl]amino}methyl)imidazo[1,2-a]pyridin-5-yl]-N,N′,N′-trimethyl-1,2-ethanediamine] has an IC50 of less than 100 nM. With `C[C@H]1CN(c2cccc3nc(CN(C)[C@H]4CCCc5cccnc54)c(Cl)n23)CCN1` [Example 78, (8S)—N-({3-Chloro-5-[(3S)-3-methyl-1-piperazinyl]imidazo[1,2-a]pyridin-2-yl}methyl)-N-methyl-5,6,7,8-tetrahydro-8-quinolinamine] the IC50 was less than 100 nM. `C[C@H]1CN(c2cccc3nc(CN(C)[C@H]4CCCc5cccnc54)c(Cl)n23)CCN1C` [Example 79, (8S)—N-([3-Chloro-5-[(3S)-3,4-dimethyl-1-piperazinyl]imidazo[1,2-a]pyridin-2-yl]methyl)-N-methyl-5,6,7,8-tetrahydro-8-quinolinamine] showed an IC50 of less than 100 nM. With `CC(C)N1CCN(c2cccc3nc(CN(C)[C@H]4CCCc5cccnc54)c(Cl)n23)CC1` [Example 80, (8S)—N-({3-Chloro-5-[4-(1-methylethyl)-1-piperazinyl]imidazo[1,2-a]pyridin-2-yl}methyl)-N-methyl-5,6,7,8-tetrahydro-8-quinolinamine] the IC50 was less than 100 nM. `CN(Cc1nc2cccc(N3CCN4CCC[C@H]4C3)n2c1Cl)[C@H]1CCCc2cccnc21` [Example 81, (8S)—N-({3-Chloro-5-[(8aS)-hexahydropyrrolo[1,2-a]pyrazin-2(1H)-yl]imidazo[1,2-a]pyridin-2-yl}methyl)-N-methyl-5,6,7,8-tetrahydro-8-quinolinamine] showed an IC50 of less than 100 nM. Work on `CCCN(Cc1nc2cccc(N3CCN(C)CC3)n2c1Cl)[C@H]1CCCc2cccnc21` [Example 82, (8S)—N-{[3-Chloro-5-(4-methyl-1-piperazinyl)imidazo[1,2-a]pyridin-2-yl]methyl}-N-propyl-5,6,7,8-tetrahydro-8-quinolinamine] yielded an IC50 of less than 100 nM. `CCCN(Cc1nc2cccc(N3CCN(CC)CC3)n2c1Cl)[C@H]1CCCc2cccnc21` [Example 83, (8S)—N-{[3-Chloro-5-(4-ethyl-1-piperazinyl)imidazo[1,2-a]pyridin-2-yl]methyl}-N-propyl-5,6,7,8-tetrahydro-8-quinolinamine] showed an IC50 of less than 100 nM. `CCCN(Cc1nc2cccc(N3CCCN(C)CC3)n2c1Cl)[C@H]1CCCc2cccnc21` [Example 84, (8S)—N-{[3-Chloro-5-(4-methylhexahydro-1H-1,4-diazepin-1-yl)imidazo[1,2-a]pyridin-2-yl]methyl}-N-propyl-5,6,7,8-tetrahydro-8-quinolinamine] showed an IC50 of less than 100 nM. `CCCN(Cc1nc2cccc(N3CCN(C(C)C)CC3)n2c1Cl)[C@H]1CCCc2cccnc21` [Example 85, (8S)—N-({3-Chloro-5-[4-(1-methylethyl)-1-piperazinyl]imidazo[1,2-a]pyridin-2-yl}methyl)-N-propyl-5,6,7,8-tetrahydro-8-quinolinamine] was tested, and the IC50 was less than 100 nM. Compound `CCCN(Cc1nc2cccc(N3CC[C@@H](N(C)C)C3)n2c1Cl)[C@H]1CCCc2cccnc21` [Example 86, (8S)—N-({3-Chloro-5-[(3R)-3-(dimethylamino)-1-pyrrolidinyl]imidazo[1,2-a]pyridin-2-yl}methyl)-N-propyl-5,6,7,8-tetrahydro-8-quinolinamine] has an IC50 of less than 100 nM. `CCCN(Cc1nc2cccc(N3CCC(N(C)C)CC3)n2c1Cl)[C@H]1CCCc2cccnc21` [Example 87, (8S)—N-({3-Chloro-5-[4-(dimethylamino)-1-piperidinyl]imidazo[1,2-a]pyridin-2-yl}methyl)-N-propyl-5,6,7,8-tetrahydro-8-quinolinamine] showed an IC50 of less than 100 nM. Work on `CCCN(Cc1nc2cccc(N3CCN[C@@H](C)C3)n2c1Cl)[C@H]1CCCc2cccnc21` [Example 88, (8S)—N-({3-Chloro-5-[(3S)-3-methyl-1-piperazinyl]imidazo[1,2-a]pyridin-2-yl}methyl)-N-propyl-5,6,7,8-tetrahydro-8-quinolinamine] yielded an IC50 of less than 100 nM. For `CCCN(Cc1nc2cccc(N(C)CCN(C)C)n2c1Cl)[C@H]1CCCc2cccnc21` [Example 89, N-[3-Chloro-2-({propyl[(8S)-5,6,7,8-tetrahydro-8-Quinolinyl]amino}methyl)imidazo[1,2-a]pyridin-5-yl]-N,N′,N′-trimethyl-1,2-ethanediamine], the IC50 was less than 100 nM. `CCCN(Cc1cn2c(N3CCN(C)CC3)ccc(F)c2n1)[C@H]1CCCc2cccnc21` [Example 90, (8S)—N-{[8-Fluoro-5-(4-methyl-1-piperazinyl)imidazo[1,2-a]pyridin-2-yl]methyl}-N-propyl-5,6,7,8-tetrahydro-8-quinolinamine] showed an IC50 of less than 100 nM.
